These results are taken from PMC4607586 (Bioorganic & medicinal chemistry letters, 2015).

The target of assay [1] is HIV-1 protease (Human immunodeficiency virus type 1 group M subtype B, UniProt P04585). The assay can be described thus: HIV-1 protease enzyme inhibition assay. It is filed as biochemical. Particulars: for improvement of protease inhibitory activity over 5b: relative to N-methyl-N-propyl amide 5b.
Assay [2] deals with HIV-1 LAI. The assay can be described thus: Antiviral assay using MT-2 cells exposed to HIV-1 LAI. Type of assay: cell-based.

SMILES strings stand for the structures.

As to `CCCN(C)C(=O)c1cccc(C(=O)N[C@@H](Cc2ccccc2)[C@H](O)CN(CC(C)C)S(=O)(=O)c2ccc(OC)cc2)c1` [Inhibitor 5b], the “enhanced potency over 5a (enzyme inhibition)” value in assay [1] (relative to 5a) is 5 fold.

Regarding `CCCN(CCC)C(=O)c1cccc(C(=O)N[C@@H](Cc2ccccc2)[C@H](O)CN(CC(C)C)S(=O)(=O)c2ccc(OC)cc2)c1` [Inhibitor 5e], the “antiviral activity (in words)” value in assay [2] is “no appreciable antiviral activity”.

Regarding `COc1ccc(S(=O)(=O)N(CC(C)C)C[C@@H](O)[C@H](Cc2ccccc2)NC(=O)c2cccc(C(=O)N3CCOCC3)c2)cc1` [Inhibitor 5f], in assay [1], the “improvement of protease inhibitory activity over 5b” value was “over 10 fold”. Besides, the “antiviral activity (in words)” value in assay [2] is “very good antiviral activity”.

With `COc1ccc(S(=O)(=O)N(CC(C)C)C[C@@H](O)[C@H](Cc2ccccc2)NC(=O)c2cccc(C(=O)N3CCN(C)CC3)c2)cc1` [Inhibitor 5g], the “improvement of protease inhibitory activity over 5b” value in assay [1] is “over 10 fold”. Moreover, in assay [2], the “antiviral activity (in words)” value was “very good antiviral activity”.

As to `COC[C@@H]1C[C@@H](O)CN1C(=O)c1cccc(C(=O)N[C@@H](Cc2ccccc2)[C@H](O)CN(CC(C)C)S(=O)(=O)c2ccc(OC)cc2)c1` [Inhibitor 5h], in assay [2], the “antiviral activity (in words)” value is “moderate antiviral activity”.

Take `COC[C@H]1C[C@H](O)CN1C(=O)c1cccc(C(=O)N[C@@H](Cc2ccccc2)[C@H](O)CN(CC(C)C)S(=O)(=O)c2ccc(OC)cc2)c1` [Inhibitor 5i]: the “antiviral activity (in words)” value in assay [2] is “moderate antiviral activity”.

With `COC[C@H]1C[C@@H](O)CN1C(=O)c1cccc(C(=O)N[C@@H](Cc2ccccc2)[C@H](O)CN(CC(C)C)S(=O)(=O)c2ccc(OC)cc2)c1` [Inhibitor 5k], the “antiviral activity (in words)” value in assay [2] was “moderate antiviral activity”.
